The values below come from patent US20020001565A1, “Radioprotective agents” (priority 2000, published 2002).

This assay deals with CD2F 1 male mice. In words: 30-day survival of mice after a lethal dose of cobalt-60 radiation. It counts as in vivo. The protocol:
Control groups were administered saline and polyethylene glycol 400 (the vehicle for the genistein) prior to irradiation. Genistein (Sigma Chemical Co., St. Louis, Mo.) was administered 400 mg/kg either as a single dose or multiple dosages of 100 mg/kg each at various times ranging from 1 hour to 4 days before radiation, after irradiation, or both before and after radiation.
In subsequent studies, using the procedures and mice of Example 1, a single subcutaneous dose of 100 or 400 mg/kg genistein was administered 24 hr before 9.5 Gy radiation.

On to `O=c1c(-c2ccc(O)cc2)coc2cc(O)cc(O)c12` [genistein, 5,7-dihydroxy-3-(4-hydroxyphenyl)-4H-1 benzopyran-4-one], for which the 30-day survival reads like this: (100 mg/kg orally daily for 4 days before and 4 days after irradiation, 9.5 Gy) 50%; (genistein before and after irradiation, oral, 9.5 Gy cobalt-60, dose not given) 69%; (genistein only after irradiation, oral, 9.5 Gy cobalt-60, dose not given) 0%; (genistein only before radiation, oral, 9.5 Gy cobalt-60 at 0.6 Gy/min, dose not given) “Forty-four”; (multiple oral administration 100 mg/kg, 4 days before irradiation, 9.5 Gy) 0%; (multiple oral administration 100 mg/kg, after irradiation, 9.5 Gy) 0%. Besides, the radioprotection result (single dose 400 mg/kg orally 1 hr before 9.5 Gy radiation) is reported as “did not confer any measurable radioprotection” and the radioprotection entry (single dose 400 mg/kg orally 24 hr before 9.5 Gy radiation) is given as “did not confer any measurable radioprotection”. Further, the 30-day survival rate is, setting by setting: (single subcutaneous dose 100 mg/kg 24 hr before 9.5 Gy radiation) 69%; (single subcutaneous dose 400 mg/kg 24 hr before 9.5 Gy radiation) 81%.
